The results in this text go back to US20020183384A1, “Methods of treating nuclear factor-kappa B mediated diseases and disorders” (priority 2001, published 2002).

This assay concerns NF-κB mediated transcription. Briefly: NF-κB driven β-lactamase reporter assay in ECV-304 NF-κB.βlaZ cells (AURORA CCF2 fluorescence). Format: cell-based, human. Particulars: 10 μM compound, ECV-304 NF-κB.βlaZ cells stimulated with 10 ng/mL TNF-α or 100 pg/mL IL-1β, 6 hours at 37° C., inhibition of maximum blue/green ratio; for inhibition at 10 µM: Homo sapiens, read-out: Percent Inhibition at 10 μM. An excerpt: Introduction: Described below is an in vitro, cell-based, high throughput screening assay that reliably identifies inhibitors of NF-κB mediated transcription.
The assay takes advantage of AURORA (Aurora Bioscience Corporation, La Jolla, Calif.) fluorescence technology. Endothelial cell vein-304 (ECV-304) cells, an endothelial-like immortalized cell type, may be stably transfected with a plasmid vector containing the cDNA for the enzyme β-lactamase (under the control of a basal promoter, Stratagene pNFκB-luc vector) and 5 copies of an human immunodeficiency virus-1 (HIV-1) NF-κB binding site. ECV-304 cells are described by Takahashi K. et al. in Spontaneous Transformation and Immobilization of Human Endothelial Cells, In Vitro Cell. Dev. Biol. 1990;25:265-274. Activation of NF-κB in ECV-304 by cytokines such as TNF-α or interleuken-1 beta (IL-1β) results in the production of β-lactamase, which cleaves a green fluorescent substrate (excitation/emission wavelengths 395 nm1530 nm) to yield a blue fluorescent product (excitation/emission wavelengths 395 nm/460 nm). Visually, the uncleaved green fluorescent substrate is sequestered intracellularly and emits green fluorescence, while the cleaved product emits blue fluorescence. Fluorescence is quantitated spectrophotometrically, and the spectral intensity of blue fluorescence versus green fluorescence can be used to calculate the degree of activation of NF-κB.
The assay was performed as outlined here and described in detail below. ECV-304 cells permanently transfected with the NF-κB driven β-lactamase gene (ECV-304 NF-κB.βlaZ) were plated in clear-bottom, black 96-well plates (1.25×10^4 cells/well) in media-199 (M-199) media containing 2% fetal bovine serum (FBS). […] The AURORA fluorescent disclosing reagent was then added. After one additional hour, the plates were read in a fluorometer at the blue 395 nm/460 nm (excitation/emission) and green 395 nm/530 nm wavelengths. Then the blue/green emission ratio was calculated. […] An IC50 for said sulfonylaminocarbonyl derivative was determined from a dose-response curve. This assay was designed to be optionally run in either high or low throughput screening modes.
Five copies of the HIV-1 NF-κB binding site (5′-[…]-3′) along with a TATA box were inserted into the EcorRI/BamHI sites of plasmid pMCRBlaZ to create plasmid p5×KBBlaZ, which procedure is illustrated in Scheme 1 below. [formula]
Cells were selected for antibiotic resistance with Zeocin for approximately 2 weeks. After the stable population had been expanded to a significant number of cells, it was stimulated with IL-1β and stained with AURORA CCF2 dye, a membrane permeant, intracellularly-trapped, fluorescent substrate. Cells that fluoresced blue (indicating a positive response of the NF-κB/β-lactamase reporter to stimulation by IL-1β) in the stimulated/stained population were then sorted by flow cytometry into a pool. The pool was expanded and stained with CCF2, and then the cells that fluoresced green from this unstimulated population (indicating a low background of the NF-κB/β-lactamase reporter construct) were cloned by flow cytometry after adding 1 cell per well in 96-well plates. Clones were allowed to expand. Each cloned cell line was then examined for fold stimulation after stimulation with IL-1β using a CCF2 reporter assay, and these stimulated cells were compared to unstimulated cells.
Cells: ECV-304 NF-κB β-Lactamase clone 1E8
Inhibitors: Prepared stock solutions of aminosulfonyl derivatives at 10 mM concentration in DMSO;
c) Added 10 μL of B into appropriate well in assay plate (the final concentration of drug is 10 μM), and […]
A general note: A reporter such as luciferase makes a cellular process visible.

For orientation: inhibition means the share of the control response that was lost under treatment.

Where two headings read alike, the source gives them in different places. Where only a bound is given, the exact number is not on record here.

As for `CCCCCCCCCCCCOS(=O)(=O)NC(=O)Oc1c(-c2ccccc2)cccc1-c1ccccc1` [Example 92, Carbamic acid, [(dodecyloxy)sulfonyl]-, [1,1′:3′,1″-terphenyl]-2′-yl ester], the inhibition at 10 µM is under 10%.
With `CCCCCCCCCCCCOS(=O)(=O)NC(=O)Cc1c(C(C)C)cc(C(C)C)cc1C(C)C` [Example 199, [(2,4,6-Triisopropyl-phenyl)-acetyl]-sulfamic acid dodecyl ester], the inhibition at 10 µM (ECV-304, 6 h) was 50.7%.
As to `CCOC(=O)CCNC(=O)Nc1cc(C(C)C)c(OS(=O)(=O)NC(=O)Cc2c(C(C)C)cc(C(C)C)cc2C(C)C)c(C(C)C)c1` [Example 194, 3-[3-(3,5-Diisopropyl-4-{[(2,4,6-triisopropyl-phenyl)-acetyl]-sulfamoyloxy}-phenyl)-ureido]-propionic acid ethyl ester], where the note is “ECV-304, 6 h”, the inhibition at 10 µM was found to be 89.8%.
Regarding `CC(C)c1cccc(C(C)C)c1OS(=O)(=O)NC(=O)Oc1c(-c2ccccc2)cccc1-c1ccccc1` [Example 114, Carbamic acid, [[2,6-bis(1-methylethyl)phenoxy]sulfonyl]-, [1,1′:3′,1″-terphenyl]-2′-yl ester], the inhibition at 10 µM was under 10%.
As for `COc1ccc(OC)c(CC(=O)NS(=O)(=O)Oc2c(C(C)C)cccc2C(C)C)c1` [Example 145, [(2,5-Dimethoxy-phenyl)-acetyl]-sulfamic acid 2,6-diisopropyl-phenyl ester], under “ECV-304, 6 h”, the inhibition at 10 µM was under 10%.
As to `CC(C)c1cccc(C(C)C)c1NS(=O)(=O)NC(=O)NC(c1ccccc1)c1ccccc1` [Example 18, N-[[[2,6-bis(1-methylethyl)phenyl]amino]sulfonyl]-N′-(diphenylmethyl)-urea], for the setting “ECV-304, 6 h”, the inhibition at 10 µM stood at 35.9%.
Same read-out and setting: under `CCCCCCCCCCCCCC(c1ccccc1)S(=O)(=O)NC(=O)Nc1c(C(C)C)cccc1C(C)C` (stereo not shown) [Example 245, N-[2,6-bis(1-methylethyl)phenyl]-N′-(1-phenyl-1-tetradecylsulfonyl)urea] stands 16.1%; under `CC(C)c1cc(C(C)C)c(CC(=O)NS(=O)(=O)Oc2c(C(C)C)cc(NC(=O)[C@@H](N)C(C)C)cc2C(C)C)c(C(C)C)c1` [Example 232, [2-(2,4,6-Triisopropyl-phenyl)-acetyl]-sulfamic acid 4-((S)-2-amino-3-methyl-butyrylamino)-2,6-diisopropyl-phenyl ester; compound with trifluoro-acetic acid], 76.9%.
With `Cc1cc(C(C)(C)C)c(OC(=O)NS(=O)(=O)N(CCCN(C)C)CCCN(C)C)c(C(C)(C)C)c1` [Example 40, Carbamic acid, [[bis[3-(dimethylamino)propyl]amino]sulfonyl]-, 2,6-bis(1,1-dimethylethyl)-4-methylphenyl ester], the inhibition at 10 µM is under 10%.
Consider `CC(C)c1cccc(C(C)C)c1OS(=O)(=O)NC(=O)C1c2ccccc2-c2ccccc21` [Example 174, (9H-Fluorene-9-carbonyl)-sulfamic acid 2,6-diisopropyl-phenyl ester], for which the inhibition at 10 µM (ECV-304, 6 h) turned out to be 32.2%.
For the compound `Cc1cccc(C)c1OC(=O)NS(=O)(=O)Oc1c(C(C)C)cccc1C(C)C` [Example 179, Carbamic acid, [[2,6-bis(1-methylethyl)phenoxy]sulfonyl]-, 2,6-dimethylphenyl ester], the inhibition at 10 µM was under 10%.
As to `CCCCN(CCCC)S(=O)(=O)N(C)C(=O)Nc1c(C(C)C)cccc1C(C)C` [Example 99, Urea, N′-[2,6-bis(1-methylethyl)phenyl]-N-[(dibutylamino)sulfonyl]-N-methyl-], the inhibition at 10 µM (ECV-304, 6 h) is under 10%.
With `CC(C)c1cccc(C(C)C)c1OS(=O)(=O)NC(=O)OC1[C@H](C(C)C)CCC[C@H]1C(C)C` [Example 142, Carbamic acid, [[2,6-bis(1-methylethyl)phenoxy]sulfonyl]-, (2S,6S)-2,6-bis(1-methylethyl)cyclohexyl ester], the inhibition at 10 µM (ECV-304, 6 h) stood at 53.9%.
`CC(=O)OC(C(=O)NS(=O)(=O)Oc1c(C(C)C)cccc1C(C)C)c1c(C(C)C)cc(C(C)C)cc1C(C)C` (stereo not shown) [Example 154, Acetic acid 2-(2,6-diisopropyl-phenoxysulfonylamino)-2-oxo-1-(2,4,6-triisopropyl-phenyl)-ethyl ester]: the inhibition at 10 µM (ECV-304, 6 h) stood at 77.7%.
`CCCCCCN(CCCCCC)S(=O)(=O)NC(=O)Oc1c(C(C)(C)C)cc(C)cc1C(C)(C)C` [Example 33, Carbamic acid, [(dihexylamino)sulfonyl]-, 2,6-bis(1,1-dimethylethyl)-4-methylphenyl ester]: the inhibition at 10 µM turned out to be 58.6%.
`CC(C)c1cc(C(C)C)c(CC(=O)NS(=O)(=O)Oc2c(C(C)C)cc(NC(=O)Nc3c(C(C)C)cccc3C(C)C)cc2C(C)C)c(C(C)C)c1` [Example 215, [(2,4,6-Triisopropyl-phenyl)-acetyl]-sulfamic acid 4-[3-(2,6-diisopropyl-phenyl)-ureido]-2,6-diisopropyl-phenyl ester]: the inhibition at 10 µM (ECV-304, 6 h) was determined as 74.7%.
On to `CC(C)c1cccc(C(C)C)c1OS(=O)(=O)NC(=O)C(c1ccccc1)c1ccccc1` [Example 160, Diphenylacetyl-sulfamic acid 2,6-diisopropyl-phenyl ester], for which the inhibition at 10 µM (ECV-304, 6 h) turned out to be 34.2%.
On to `CC(C)c1cc(C(C)C)c(OS(=O)(=O)NC(=O)Oc2c(C(C)(C)C)cc(C(C)(C)C)cc2C(C)(C)C)c(C(C)C)c1` [Example 127, Carbamic acid, [[2,4,6-bis(1-methylethyl)phenoxy]sulfonyl]-, 2,4,6-tris(1,1-dimethylethyl)phenyl ester], for which the “Percent Inhibition at 10 μM” value came out at 74.01%.
In the case of `CC(C)c1ccc(OC(=O)NS(=O)(=O)Oc2c(C(C)C)cccc2C(C)C)c(C(C)C)c1` [Example 129, Carbamic acid, [[2,6-bis(1-methylethyl)phenoxy]sulfonyl]-, 2,4-bis(1-methylethyl)phenyl ester], the inhibition at 10 µM was under 10%.
For `CC(C)c1cccc(C(C)C)c1OS(=O)(=O)NC(=O)C(C)c1ccccc1` (stereo not shown) [Example 159, (2-Phenyl-propionyl)-sulfamic acid 2,6-diisopropyl-phenyl ester], the inhibition at 10 µM (ECV-304, 6 h) was 10.1%.
As to `CCCCCCCCN(CCCCCCCC)S(=O)(=O)NC(=O)Oc1c(C(C)C)cccc1C(C)C` [Example 85, Carbamic acid, [(dioctylamino)sulfonyl]-, 2,6-bis(1-methylethyl)phenyl ester], the inhibition at 10 µM is 45%.
For `CC(C)c1cccc(C(C)C)c1OC(=O)NS(=O)(=O)Oc1ccccc1` [Example 97, Carbamic acid, (phenoxysulfonyl)-, 2,6-bis(1-methylethyl)phenyl ester], the inhibition at 10 µM was under 10%.
With `CC(C)c1cc(C(C)C)c(CC(=O)NS(=O)(=O)Oc2c(C(C)C)cc(NC(=O)[C@@H](C)N)cc2C(C)C)c(C(C)C)c1` [Example 206, [2-(2,4,6-Triisopropyl-phenyl)-acetyl]-sulfamic acid 4-((R)-2-amino-propionylamino)-2,6-diisopropyl-phenyl ester; compound with trifluoro-acetic acid], where the note is “ECV-304, 6 h”, the inhibition at 10 µM was found to be 47.9%.
In the case of `CCCCN(CCCC)S(=O)(=O)NC(=O)Nc1c(C(C)C)cccc1C(C)C` [Example 21, N-[2,6-bis(1-methylethyl)phenyl]-N′-[(dibutylamino)sulfonyl]-urea], the inhibition at 10 µM (ECV-304, 6 h) was 29.4%.
For `CC1(C)OCC(NC(=O)NS(=O)(=O)NCC23CC4CC(CC(C4)C2)C3)C(c2ccccc2)O1` (stereo not drawn) [Example 104, Urea, N-(2,2-dimethyl-4-phenyl-1,3-dioxan-5-yl)-N′-[[(tricyclo[3.3.1.1^3,7]dec-1-ylmethyl)amino]sulfonyl]-, (4S-#cis/)-], the “Percent Inhibition at 10 μM” value is under 10%.
